According to patent publication US20100249184A1, “INDUCTION AND/OR MAINTENANCE OF TUMOR DORMANCY BY DISRUPTION OF UROKINASE PLASMINOGEN ACTIVATOR RECEPTOR-INTEGRIN INTERACTION” (MOUNT SINAI SCHOOL OF MEDICINE, priority 2007, published 2010):

System: T-ELK:GFP cells
Experiment: ERK activation reporter (GFP, FACS) in T-ELK:GFP cells
Type: cell-based, human
Conditions: 38 hrs, untreated 7.4%
Excerpt: FIGS. 6A-E show ERK activation and growth in vivo. In FIG. 6A, HEK293 and D-Hep3 cells transfected with uPAR^wt produces stronger activation of ERK than cells transfected with uPAR^S245A or with vector (top and middle panels); HEK293, and D-HEp3 cells, transiently transfected with pcDNA3.1 vector, or with an expression construct for uPAR^wt or uPAR^S245A lysed 48 hrs later and analyzed by Western blotting for phospho-ERK (FIG. 6A, top panels) and ERK 1/2 (FIG. 6A, middle panels) with specific antibodies. The bands were scanned with NIH Image and plotted. The ratio of phospho-ERK to ERK was calculated and expressed as a fraction of the ratio of pcDNA3.1 transfected cells. In FIG. 6A (bottom panels), uPAR^wt and uPAR^S245A expression was determined by Western blotting. […] D-HEp3 cells transfected with vector, or uPAR^wt or uPAR^S245A were detached with EDTA 36 hrs after transfection and 7×10^5 cells in 30 μl PBS were inoculated onto chorioallantoic membranes (“CAMs”) of 10-day old chick embryos. Each sample was inoculated onto 4 CAMs. The CAMs were excised 4 days later and the number of tumor cells was determined as in the Examples. The bars show mean and standard deviation. Paired t-test vector/uPAR^S245A p=0.76, vector/uPAR^wt p=0.0005, uPAR^S245/uPAR^wt p=0.0002. Inset: uPAR expression detected by Western blot with R2 antibody. In FIG. 6C, peptide 240-248, but not peptide 17-24, down regulates P-ERK level. […] The cells were lysed and the lysates were analyzed for P-ERK (FIG. 6C, upper panel) and total ERK (FIG. 6C, lower panel) by Western blotting. […] The cells were processed as in FIG. 6C, except that the bands were scanned by NIH Image the P-ERK/ERK ratio was calculated. […] The cells were detached and analyzed for GFP in FACS Canto using FACSDiva software. […]
[…] The cells were detached and analyzed for GFP by FACS analysis using FACS Canto (Becton Dickinson, Calif.) and FACSDiva software. […] Concentration dependence of P-ERK inhibition was analyzed by scanning P-ERK and ERK bands with NIH-Image and expressing their ratios as % of the ratio in untreated control (T-HEp3) cells. […]

| Substance | GFP-positive cells (% of total) (25 μM peptide) [%] | GFP-positive cells (% of total) (5 μM peptide) [%] |
| --- | --- | --- |
| peptide 17-24: synthetic uPAR-derived peptide, domain I amino acid 17-24: CALGQDLC (SEQ ID NO:5); negative control [reference compound] | 6.2 | – |
| peptide 240-248: synthetic uPAR-derived peptide, domain III residues 240-248: GCATASMCQ (SEQ ID NO:9) | 0.7 | 1.6 |
